Experimental data: US5272178A, “Compounds of cyclic phenolic thioethers which are useful in stimulating and inhibiting superoxide generation” (G. D. Searle & Co., priority 1993, dated 1993)

Tests used:
5-lipoxygenase = biological target: T1, 5-lipoxygenase (Rattus norvegicus, UniProt P12527); assay: Inhibition of 5-lipoxygenase, in vitro (5-HETE synthesis, RBL-1 100,000 x g supernatant); assay type: biochemical; conditions: for activation at 100 µM / activation at 10 µM: stimulation, read-out: 5-Lipoxygenase, Stimulated %
T1 construct: The 100,000 x g supernatant fraction of Rat Basophilic Leukemia Cell Homogenate (RBL-1); endogenous in cells; host or cells: RBL-1 (rat basophilic leukemia) cells, 100,000 x g supernatant of homogenate
T1 sequence (P12527 1-673): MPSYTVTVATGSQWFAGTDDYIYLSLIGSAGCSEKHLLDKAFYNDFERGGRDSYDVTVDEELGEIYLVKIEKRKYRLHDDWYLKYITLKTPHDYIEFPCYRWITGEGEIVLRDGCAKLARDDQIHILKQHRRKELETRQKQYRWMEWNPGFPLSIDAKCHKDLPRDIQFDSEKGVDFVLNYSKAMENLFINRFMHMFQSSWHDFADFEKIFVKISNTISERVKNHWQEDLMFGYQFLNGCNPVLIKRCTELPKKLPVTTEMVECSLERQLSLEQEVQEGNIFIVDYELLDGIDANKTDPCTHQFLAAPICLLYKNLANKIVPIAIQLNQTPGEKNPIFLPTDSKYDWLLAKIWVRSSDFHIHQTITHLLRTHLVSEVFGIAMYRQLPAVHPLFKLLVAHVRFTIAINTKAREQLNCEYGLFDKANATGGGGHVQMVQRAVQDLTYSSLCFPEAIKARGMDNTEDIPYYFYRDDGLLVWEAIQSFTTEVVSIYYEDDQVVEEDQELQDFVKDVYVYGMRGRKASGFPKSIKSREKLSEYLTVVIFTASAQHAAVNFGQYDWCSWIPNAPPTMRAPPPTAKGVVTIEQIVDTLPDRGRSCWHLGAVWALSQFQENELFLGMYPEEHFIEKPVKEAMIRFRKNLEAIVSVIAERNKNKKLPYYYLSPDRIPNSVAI
Protocol: The compounds of the invention are evaluated with respect to 5-lipoxygenaseinhibition according to the following assay procedure.
Inhibition of 5-lipoxygenase, in vitro: anti-inflammatory, anti-allergy activities.
The 100,000 x g supernatant fraction of Rat Basophilic Leukemia Cell Homogenate (RBL-1) serves as a 5-lipoxygenase enzyme source. The enzyme is incubated with [1-^14 C)-arachidonic acid and Ca++ in the presence and absence of test compound. The product of 5-lipoxygenase, 5-hydroxyeicosatetraenoic acid (5-HETE), is separated by thin-layer chromatography an measured by radioactivity. A compound inhibiting 5-HETE synthesis by 30% or more is considered active at that concentration.
For comparison the compound of Formula XX, a known 5-lipoxygenase inhibitor described in U.S. Pat. No. 4,755,524 was used. [drawing 13]

human neutrophils = assay: Human neutrophil superoxide generation (FMLP-stimulated, cytochrome C reduction); assay type: cell-based; conditions: for IC50: read-out: FMLP Induced Superoxide Generation, Inhibition IC50
Protocol: The compounds of the invention are evaluated with respect to superoxide modulating activity according to the following assay procedure:
Human neutrophil superoxide generation: Superoxide generation by formyl-methionyl-leucyl-phenylalanine (FMLP)-stimulated neutrophils was quantitated by the reduction of cytochrome C (Badwey, J. A., Curnutte, J. T. and Karnovsky, M. L., cis-Polyunsaturated fatty acids induce high levels of superoxide production by human neutrophils. J. Biol. Chem. 256: 12640-12643, 1981.) To 5 million neutrophils in 2.85 ml of Krebs-Ringer phosphate buffer, pH 7.2, 50 ul of inhibitor (in 10% DMSO/buffer), and 50 ul ferricytochrome C (5 mM, stock) were added and preincubated for 3 minutes at 37° C. Absorption measurements at 550 nm were recorded at start of preincubation. Fifty ul FMLP (6 uM, stock) was added to initiate reaction. A plateau was reached within 3 minutes and this reading minus the initial reading (before addition of FMLP) was used to calculate nanomoles of superoxide generated based on a molar extinction coefficient of 2.1×10^4 cm^-1 mole^-1.
Isolation of human neutrophils: Human neutrophils were isolated from freshly drawn blood of healthy donors. Two ml of 5% dextran (MW 200,000-300,000) in saline was added to 10 ml aliquots of blood, mixed and placed upright for 45 min. at 37° C. Approx. 8-10 ml of the plasma-white cell suspension from the dextran sedimentation was layered on 3 ml of Ficol-paque in a 15 ml tube and centrifuged at 400 g for 30 min. The supernate, containing plasma and platelets, was discarded by aspiration, and the pellet, containing predominantly neutrophils, was resuspended in 1 ml saline. The suspension was transferred to a clean tube, and pooled with other aliquots of blood treated similarly. The pooled suspension was centrifuged at 350 g for 5 min. and supernate discarded. The pellet was resuspended in 5 ml of 0.05% NaCl with a plastic Pasteur pipette for 25 seconds to lyse contaminating red cells, then 5 ml of 1.75% NaCl added to regain isotonicity. The red cell lysing procedure was repeated, the cells suspended in appropriate buffer (depending on assay) and counted.

[1] = biological target: T2, Sheep Seminal Vesicle Microsome Cyclooxygenase (Ovis aries, UniProt P05979); assay: Inhibition of Sheep Seminal Vesicle Microsome Cyclooxygenase; assay type: biochemical
T2 construct: Lyophilized ovine microsome (approx. 1 mg) suspended in 2.9 ml Tris-HCl buffer, pH 8.2, containing 0.7 mM phenol were used as source; from tissue; host or cells: sheep seminal vesicle microsomes (lyophilized)
T2 sequence (P05979 25-600): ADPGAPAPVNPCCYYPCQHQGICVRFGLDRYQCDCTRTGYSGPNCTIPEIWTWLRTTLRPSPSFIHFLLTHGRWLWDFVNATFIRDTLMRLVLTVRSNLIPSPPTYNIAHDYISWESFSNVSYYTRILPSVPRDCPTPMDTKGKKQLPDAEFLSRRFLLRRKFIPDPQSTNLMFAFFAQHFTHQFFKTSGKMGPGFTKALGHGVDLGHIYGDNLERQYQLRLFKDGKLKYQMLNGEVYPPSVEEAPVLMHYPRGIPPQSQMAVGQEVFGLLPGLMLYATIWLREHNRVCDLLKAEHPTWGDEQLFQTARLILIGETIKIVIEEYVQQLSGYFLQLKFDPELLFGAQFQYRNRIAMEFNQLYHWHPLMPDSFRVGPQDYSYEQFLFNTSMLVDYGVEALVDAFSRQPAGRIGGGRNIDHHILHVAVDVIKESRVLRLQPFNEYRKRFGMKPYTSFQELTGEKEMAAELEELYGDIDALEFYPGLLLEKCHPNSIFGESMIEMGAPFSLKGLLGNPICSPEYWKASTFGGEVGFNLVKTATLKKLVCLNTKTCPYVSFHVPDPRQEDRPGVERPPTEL
Protocol: The compounds of the present invention evaluated with respect to cyclooxygenase inhibition according to the following assay procedure. Inhibition of Sheep Seminal Vesicle Microsome Cyclooxygenase The assay was based on oxygen consumption during conversion of arachidonic acid to prostaglandin G2 catalyzed by cyclooxygenase Biochem. 11:3276-3285 (1972). Lyophilized ovine microsome (approx. 1 mg) suspended in 2.9 ml Tris-HCl buffer, pH 8.2, containing 0.7 mM phenol were used as source of arachidonate cyclooxygenase. The inhibitor, 50 μl in DMSO, was added and the mixture preincubated for 5 minutes at 37° C. Fifty μl of arachidonic acid (final conc. 50 μM) was added to start the reaction. The slopes of the initial rates of oxygen uptake, in the presence and absence of inhibitor, were compared to determine reaction inhibition. Percent inhibition was computed using the following formula: [formula]

[2] = Homo sapiens, Neutrophil, % above control, read-out: FMLP Induced Superoxide Generation, Stimulation, % > control

**Q.** With `O=C(O)CS[C@@H]1CCCC[C@H]1Sc1cccc(-c2ccccc2)c1` (relative stereo) [Example 15] as the compound, how does the inhibition at 100 µM (5-lipoxygenase; at 10^-4 M, inhibition, read-out: 5-Lipoxygenase, Inhibited %) read?
**A.** 21.3%

**Q.** What about the inhibition at 10 µM (5-lipoxygenase; at 10^-5 M, inhibition, read-out: 5-Lipoxygenase, Inhibited %) of the same compound?
**A.** 14.9%

**Q.** What about the IC50 (human neutrophils; Homo sapiens, Neutrophil) of the same compound?
**A.** 2.8 µM

**Q.** What about the IC50 [1] of the same compound?
**A.** 64 µM

**Q.** Which IC50 (5-lipoxygenase) does the source give for `CC(C)(C)c1cc(S[C@@H]2CCCC[C@H]2OCC(=O)O)cc(C(C)(C)C)c1` (relative stereo) [Example 17] here?
**A.** > 100 µM

**Q.** What about the IC50 (human neutrophils; Homo sapiens, Neutrophil) of the same compound?
**A.** 3.4 µM

**Q.** Which results are given for `CC(C)(C)c1cc(S[C@@H]2CCCC[C@H]2SCC(=O)O)cc(C(C)(C)C)c1` (relative stereo) [Example 5, trans-[[2-[[3,5-bis(1,1-dimethylethyl)phenyl]thio]cyclohexyl]thio]acetic acid]?
**A.** IC50 (5-lipoxygenase): 100 µM; IC50 (human neutrophils; Homo sapiens, Neutrophil): 1.1 µM

**Q.** Which activation at 100 µM (5-lipoxygenase; at 10^-4 M) does the source give for `CC(C)(C)c1cccc(S[C@@H]2CCCC[C@H]2SCC(=O)O)c1` (relative stereo) [Example 11] here?
**A.** 2.5%

**Q.** What about the activation at 10 µM (5-lipoxygenase; at 10^-5 M) of the same compound?
**A.** 3.2%

**Q.** And the IC50 (human neutrophils; Homo sapiens, Neutrophil)?
**A.** 4.8 µM

**Q.** And the IC50 [1]?
**A.** 2.9 µM

**Q.** `O=C(O)CS[C@@H]1CCCC[C@H]1Sc1ccccc1` (relative stereo) [Example 7] was tested. Which “5-lipoxygenase inhibition (statement in words)” value (5-lipoxygenase) did it give?
**A.** did not inhibit either 5-lipoxygenase or cyclooxygenase

**Q.** What about the activation at 100 µM (5-lipoxygenase; at 10^-4 M) of the same compound?
**A.** 45%

**Q.** And the activation at 10 µM (5-lipoxygenase; at 10^-5 M)?
**A.** 27%

**Q.** And the “superoxide generation (statement in words)” value (human neutrophils)?
**A.** did inhibit superoxide generation

**Q.** And the IC50 (human neutrophils; Homo sapiens, Neutrophil)?
**A.** 50 µM

**Q.** And the “cyclooxygenase inhibition (statement in words)” value [1]?
**A.** did not inhibit either 5-lipoxygenase or cyclooxygenase

**Q.** What about the “Cyclooxygenase Inhibition (in words)” value ([1]; at 100 μM) of the same compound?
**A.** Inactive

**Q.** Which “5-lipoxygenase inhibition (statement in words)” value (5-lipoxygenase) does the source give for `C[C@H](Sc1cc(C(C)(C)C)c(O)c(C(C)(C)C)c1)[C@@H](C)OCC(=O)O` (relative stereo) [Formula XX, reference compound] here?
**A.** inhibited both superoxide generation and 5-lipoxygenase

**Q.** What about the “superoxide generation (statement in words)” value (human neutrophils) of the same compound?
**A.** inhibited both superoxide generation and 5-lipoxygenase

**Q.** What about the IC50 (human neutrophils; Homo sapiens, Neutrophil) of the same compound?
**A.** 11 µM

**Q.** For `COC(=O)CS[C@@H]1CCCC[C@H]1Sc1cc(C(C)(C)C)cc(C(C)(C)C)c1` (relative stereo) [Example 4], which activation at 1 µM (human neutrophils; Homo sapiens, Neutrophil, 1 μM, % above control, read-out: FMLP Induced Superoxide Generation, Stimulation, % > control) is on record?
**A.** 67%

**Q.** What about the activation at 10 µM (human neutrophils; [2]) of the same compound?
**A.** 133%

**Q.** What about the activation at 100 µM (human neutrophils; Homo sapiens, Neutrophil, 100 μM, % above control, read-out: FMLP Induced Superoxide Generation, Stimulation, % > control) of the same compound?
**A.** 167%

**Q.** What does the source list for `CN(CCc1ccccn1)C(=O)CS[C@@H]1CCCC[C@H]1Sc1cc(C(C)(C)C)cc(C(C)(C)C)c1` (relative stereo) [Example 16]?
**A.** 5-lipoxygenase inhibition (statement in words) (5-lipoxygenase): inhibited 5-lipoxygenase; IC50 (5-lipoxygenase): 100 µM; superoxide generation (statement in words) (human neutrophils): stimulated superoxide generation; activation at 10 µM (human neutrophils; [2]): 33%; activation at 25 µM (human neutrophils; Homo sapiens, Neutrophil, 25 μM, % above control, read-out: FMLP Induced Superoxide Generation, Stimulation, % > control): 83%; activation at 50 µM (human neutrophils; Homo sapiens, Neutrophil, 50 μM, % above control, read-out: FMLP Induced Superoxide Generation, Stimulation, % > control): 100%
